Non-standard residues stand in square brackets, D forms with d. Residues, ends and D or L forms follow the SMILES beside them.
How the values were obtained:
[1] = biological target: T1, Mr 75000-85000 protein (Mus musculus, UniProt P21729); assay: ¹²⁵I-GRP affinity labelling (EGS cross-linking) of the Mr 75000-85000 protein in Swiss 3T3 cells, SDS-PAGE and scanning densitometry; format: binding; parameters: endogenous in cells; host or cells: Swiss 3T3 cells (confluent, quiescent, intact); conditions: 2.5 h; read-out: Mr 75000-85000 protein % of control
Experimental: (§1) After 2.5 h the cells were washed three times at 15°C with phosphate buffered saline (PBS) ad then incubated for 15 min at 15°C In 1 ml of binding medium, pH 7.4 In the presence of the appropriate cross-linking agent at the concentration indicated. The cross-linking agents (EGS, DSS, DSP and BSCOES) were dissolved in dimethyl sulphoxide immediately prior to use and were added to medium to give a final concentration of dimethylsulphoxide of 1-2%. The cultures were rapidly rinsed twice with PBS at 4°C and solubilized in 0.1ml of 2 x sample buffer 0.2 M Tris-HCl, pH 6.8, 10% (w/v) glycerol, 6% sodium dodecyl sulphate (SDS) (w/v) 4% β-mercaptoethanol (v/v) and 2 mM ethylenediaminetetraacetic acid. Samples were immediately heated at 100°C for 3-5 min and analysed by either one or two-dimensional gel electrophoresis.
Slab gel electrophoresis was performed using 7.5% acrylamide in the separating gel ad 5% in the stacking gel, ad 0.1% SDS (31). […] The Mr 75000-85000 band from autoradiograms was scanned using a Joyce-Loebl double beam densitometer and the areas under specific peaks were measured with a Hewlett-Packard digitizer.
Confluent cultures of 3T3 cells were incubated with 5 nM ¹²⁵I-GRP in the presence of varying concentrations of non-radioactive ligand at 15°C for 2.5 h. […] The cells were then solubilized and samples were analyzed by SDS-PAGE. […]

[2] = test system: Swiss 3T3 cells; assay: GRP-induced DNA synthesis ([³H]thymidine incorporation) in Swiss 3T3 cells; format: cell-based, mouse
Experimental: (§2) Cell culture procedure (33), assays of DNA synthesis by ³H-thymidine incorporation (34) ad ¹²⁵I-GRP binding to intact cells (13) were performed as described previously.
Figure 3. Inhibition of GRP-induced DNA synthesis by [DPro²]spantide (A) and [DPhe⁵]spantide (D). […] After 40 hours DNA synthesis was estimated by [³H]thymidine incorporation into acid-precipitable material. […] Each point represents the mean of duplicate determinations. […] Values are expressed as a percentage of [³H]thymidine incorporation obtained in the absence of antagonists (100% = 8.6 x 10⁵ cpm per dish). Each point represents the mean of 4 determinations.

[3] = biological target: T2, GRP receptor (Mus musculus, UniProt P21729); assay: specific [¹²⁵I]GRP binding to intact Swiss 3T3 cells; conditions: read-out: Half-maximal inhibition of binding
T2 construct: endogenous in cells; host or cells: Swiss 3T3 cells (mouse fibroblasts)
Experimental: as §2
(§3) Figure 4. […] Values are expressed as percentage of the specific binding obtained in the absence of antagonists. […] Each point represents the mean of 3 determinations. […] Specific binding (B) is expressed in pmol/10⁶ cells and is shown in a double-reciprocal plot. Each point represents the mean of duplicate determinations. […] After 2 hours, the cultures were washed twice with binding medium then incubated in 1 ml containing 6 mM ethylene glycol bis (succinimidylsuccinate) (EGS) at pH 7.4 for 15 minutes at 15°C. The cultures were then washed twice with cold phosphate-buffered saline and solubilised in 0.1 ml of 2x sample buffer, then immediately heated at 100°C for 5 minutes and electrophoresed on a 10% polyacrylamide gel.

[4] = test system: Swiss 3T3 cells; assay: GRP-stimulated rise in cytosolic Ca²⁺ concentration (fura-2 fluorescence) in Swiss 3T3 cells; format: cell-based, mouse; conditions: GRP (1 nM)
Experimental: (§4) Figure 5. […] Left: Effects of antagonists on [Ca²⁺]i. Quiescent Swiss 3T3 cells grown on Cytodex 2 beads were washed twice with DMEM and incubated for 10 minutes with fura-2 tetracetoxymethyl ester at 1 »m, then washed three times and suspended in 2 ml of electrolyte solution (6) in the fluorimeter at 37°C and stirred. Fluorescence was recorded continuously in a Perkins-Elmer LS5 luminescence spectrometer with an excitation wavelength of 335 nm and emission wavelength of 510 nm. After a period of equilibration, the following additions were made: solvent, S; antagonist A at 5 »m, A, 5 and 20 »m, A, 20; antagonist D at 5»m, D, 5. […] Values are expressed as percentages of the specific binding obtained with [¹²⁵I]EGF alone at 0.2 nM. The non-specific binding was obtained by the addition of 500-fold excess of unlabelled EGF. Each point represents the mean of 6 determinations.

[5] = test system: Swiss 3T3 cells; assay: reversal of the inhibition of [¹²⁵I]EGF binding induced by GRP in Swiss 3T3 cells; format: cell-based, mouse; conditions: read-out: Half-maximal reversal of inhibition (of [¹²⁵I]EGF binding by GRP); [¹²⁵I]EGF 0.2 nM, GRP 3.6 nM, 1 hour, 37°C
Experimental: as §4

[6] = test system: H69 cells; assay: growth of SCLC cell line in serum-free medium (cell number, Coulter Counter); format: cell-based
Experimental: (§5) Figure 6. […] Stock cultures of cell lines H69, H128 and H417 were maintained in RPMI 1640 medium with 10% fetal bovine serum (heat inactivated) in a humidified atmosphere of 10% CO₂:90% air at 37°C. They were passaged every 7 days. Identical growth was obtained in the serum-free medium of RPMI 1640 supplemented with HITES (29) (hydrocortisone, 10 nM; insulin, 5 »g/ml; transferrin, 100 »g/ml; 17β-estradiol, 10 nM; sodium selenite, 30 nM) and 0.25% bovine serum albumin. […] Cell number was determined at intervals over 14 days in a Coulter Counter after disaggregation of cell clumps by syringing through 19G and 21G needles. Each point represents the mean of 3 determinations.
Figure 7. Inhibition of SCLC growth in vitro by [DPro²]spantide and [DPhe⁵]spantide is concentration-dependent. Cultures of H69 cells were washed twice with RPMI 1640 medium then incubated in serum-free medium (as in Figure 6) in the absence (●) or presence of various concentrations of [DPro²]spantide (o,A) and [DPhe⁵]spantide (△,D). Cell number was determined in a Coulter Counter after disaggregation of cell clumps by syringing through 19G and 21 G needles. Samples were incubated for 13 days, when the controls (inset) had achieved 10-fold increase in number, indicated by the arrow. Each point represents the mean (± standard deviation) of 5 determinations.

[7] = test system: H128; assay: as above; format: cell-based; conditions: antagonist at 150 »m, reversed by washing
Experimental: as §5

[8] = test system: H417; assay: as above; format: cell-based; conditions: antagonist at 150 »m, reversed by washing
Experimental: as §5

[9] = biological target: T1, Mr 75000-85000 protein; assay: ¹²⁵I-GRP affinity labelling (EGS cross-linking) of the Mr 75000-85000 protein in Swiss 3T3 cells, SDS-PAGE and scanning densitometry; format: binding; parameters: endogenous in cells; host or cells: Swiss 3T3 cells (mouse fibroblasts)
Experimental: as §1
Slab gel electrophoresis was performed using 7.5% acrylamide in the separating gel ad 5% in the stacking gel, ad 0.1% SDS (31). After electrophoresis gels were stained, destained and dried down onto paper for autoradiography with Fuji X-ray film (Fuji Photo Film Co. Ltd. Japan). Dried gels were exposed to film for 4-8 days. Two-dimensional gel electrophoresis was performed as described by O'Farrell (32) using isoelectric focusing in the 1st dimension and SDS-polyacrylamide gel electrophoresis (SDS-PAGE) (8% polyacrylamide) in the second dimension. The samples prepared for isoelectric focusing containing 1.4% LKB ampholytes, pH 5-7, plus 0.6% LKD ampholytes, pH 3.5-10, 6M urea, and 2% Nonidet P-40. The Mr 75000-85000 band from autoradiograms was scanned using a Joyce-Loebl double beam densitometer and the areas under specific peaks were measured with a Hewlett-Packard digitizer.
After this time some cells were washed four times with cold (4°C) PBS supplemented with 1 mg/ml BSA, solubilized and total cell associated radioactivity was then determined in a gamma counter. […] The cells were then solubilized and samples were analyzed by SDS-PAGE. After electrophoresis, gels were dried, exposed to film and scanned as described in Materials and Methods. The areas under the individual peaks for the Mr 75000-85000 protein are shown as a function of the concentration of the unlabelled peptide and are expressed as a percentage of the control. […] The level of the Mr 75000-85000 protein expressed in arbitrary units is shown as a function of the concentration of the labelled ligand. Inset: autoradiogram of the gel used for scanning; the Mr 75000-85000 and 160,000 bands are indicated by arrows. All other experimental details were as described in Materials and Methods.
as §3
After the incubation period cultures were treated with 6 mM EGS as described in Materials and Methods. Each value is expressed as a percentage of the level of the Mr 75000-85000 protein obtained with no additons (-). Other experimental details are as described in Materials and Methods.

T1 sequence (P21729 whole entry): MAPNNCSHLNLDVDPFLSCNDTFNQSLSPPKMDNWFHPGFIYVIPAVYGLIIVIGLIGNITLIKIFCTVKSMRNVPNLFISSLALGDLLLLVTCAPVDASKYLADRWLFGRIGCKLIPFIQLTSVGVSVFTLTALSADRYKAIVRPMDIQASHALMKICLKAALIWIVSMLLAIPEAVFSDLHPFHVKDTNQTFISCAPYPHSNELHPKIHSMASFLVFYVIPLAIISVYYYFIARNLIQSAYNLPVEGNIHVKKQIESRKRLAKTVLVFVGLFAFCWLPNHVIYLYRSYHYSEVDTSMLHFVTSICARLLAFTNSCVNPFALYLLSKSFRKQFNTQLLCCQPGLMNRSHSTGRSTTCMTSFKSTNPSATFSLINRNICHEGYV
T2 sequence (P21729 whole entry): as above

IC50 [3] | IC50 ([9]; read-out: Half-maximal inhibition (affinity-labelling of the Mr 75000-85000 protein)) | cross-linking of ¹²⁵I-GRP / level of the Mr 75000-85000 protein (in words) ([9]; summary of Table 1, saturating concentrations of the other mitogens) | Mr 75000-85000 protein % of control ([9]; ¹²⁵I-GRP (0.5 nM), 15°C, 2.5 h, 6 mM EGS, additions: GRP 360 nM, GRP (14-27) 30 nM, bombesin 30 nM, litorin 92 nM, neuromedin B 220 nM, [D-Arg¹,D-Pro²,D-Trp^7,9,Leu¹¹] substance P 100 »M, GRP (1-16) 3230 nM, PDGF 5 nM, EGF 83 nM, vasopressin 1000 nM, insulin 1 »g/ml, phorbol 12,13 dibutyrate 2000 nM, substance P 740 nM, substance K 880 nM, somatostatin 610 nM, neurotensin 600 nM) | Structure (SMILES) | remaining activity at 2 µM [1] | IC50 ([2]; GRP 3.6 nM, 40 hours, Figure 3 right, read-out: Half-maximal inhibition of DNA synthesis) | concentration of GRP required to produce half-maximal stimulation of DNA synthesis ([2]; antagonist at 20 »m, Figure 3 left) | rise in [Ca²⁺]i caused by the addition of GRP ([4]; antagonist at 5 »m) | rise in [Ca²⁺]i caused by the addition of GRP ([4]; antagonist at 20 »m) | EC50 [5] | rate of growth in serum-free medium ([6]; H69, antagonist at 150 »m, reversed by washing) | IC50 ([6]; H69 cells, serum-free medium, 13 days, read-out: half-maximal effect (inhibition of growth)) | rate of growth in serum-free medium [7] | rate of growth in serum-free medium [8]
 |  |  |  | CCCC(=O)O[C@@H]1[C@@H](C)[C@@]2(O)[C@@H](C=C(CO)C[C@]3(O)C(=O)C(C)=C[C@@H]23)[C@@H]2C(C)(C)[C@]12OC(=O)CCC [Phorbol 12,13-dibutyrate] | 99% |  |  |  |  |  |  |  |  | 
14 µM | 20 µM | markedly inhibited | 9.7 % of control | CC(C)C[C@H](NC(=O)[C@H](CC(C)C)NC(=O)[C@@H](Cc1c[nH]c2ccccc12)NC(=O)[C@H](Cc1ccccc1)NC(=O)[C@@H](Cc1c[nH]c2ccccc12)NC(=O)[C@H](CCC(N)=O)NC(=O)[C@H](CCC(N)=O)NC(=O)[C@@H]1CCCN1C(=O)[C@H](CCCCN)NC(=O)[C@H]1CCCN1C(=O)[C@H](N)CCCNC(=N)N)C(N)=O [[DPro²]spantide, D-Arg-D-Pro-Lys-Pro-Gln-Gln-D-Trp-Phe-D-Trp-Leu-Leu-NH₂] (H-[dR][dP]KPQQ[dW]F[dW]LL-NH2) |  | 118 µM | only a slight effect | not | prevented | 30 µM | abolished | 82 µM | abolished | abolished

Reference: patent EP0359745B1, “GROWTH FACTOR RECEPTOR” (IMPERIAL CANCER RESEARCH TECHNOLOGY LIMITED, priority 1987, dated 1988)
